Laboratory results published in patent publication US8481514B2, “Therapeutical uses of inecalcitol” (Hybrigenics SA, priority 2009, dated 2013).

Assays:
[1] = Dose finding and clinical tolerance study of inecalcitol with docetaxel-prednisone in HRPC patients (safety); format: in vivo, human; conditions: for adverse events related to the drug: attribution of the AEs seen under the combination
Method: Escalating oral dosages of inecalcitol were combined to chemotherapy in naive HRPC patients. Safety was evaluated in groups of 3-6 patients receiving inecalcitol every other day (qod) or daily (qd) on a 21-day cycle in combination with intravenous docetaxel (75 mg/m2 q3w) and oral prednisone (5 mg bid). Patients (pts) received up to six cycles unless unacceptable toxicity or disease progression. Primary endpoint was dose limiting toxicity (DLT) defined as grade 3 hypercalcemia within the first cycle. Calcemia, creatininemia and complete blood counts were assessed weekly; biochemistry, electrocardiogram and prostate specific antigen (PSA) every 3 weeks. Efficacy endpoint was PSA response defined as ≧30% decline within 3 months.
(§1) Inecalcitol was given to patients in soft gelatine capsules of different sizes, shapes and strengths depending on the dose level studied: one, two or four 40 μg capsules (size 11, oblong shape) for administration of 40, 80 or 160 μg/day, respectively; three or six 100 μg capsules (size 4, round shape) for administration of 300 or 600 μg/day, respectively; five 200 μg capsules (size 7.5, oval shape) for administration of 1,000 μg/day; five 400 μg capsules (size 14, oblong shape) for administration of 2 mg/day, and four 1 mg capsules (size 14, oblong shape) for administration of 4 mg/day. In all the capsules, inecalcitol was present in the fill content as a solution in medium chain triglycerides from fractionated coconut oil at different concentrations depending on the capsule strengths.

[2] = 2-week toxicology study of twice-a-day oral inecalcitol in monkeys (calcemia, toxicity); format: in vivo, cynomolgus monkeys; conditions: for plasma calcium level (mean±s.e.m.): same 4 animals
Method: (§2) On FIG. 2, mean plasma concentrations of inecalcitol are plotted vs. time on the first day of treatment with two successive administrations of inecalcitol around 8 AM and 7 PM, i.e. about 11 hours apart. […] In both instances, inecalcitol levels returned to basal levels within 4 hours. In the table below, plasma calcium levels (in mmoles/L, mean±s.e.m.) were monitored in the same 4 animals for two weeks before and for two weeks during the treatment period.

[3] = Eelen et al. 2005; Verlinden et al. 2001; cited from earlier work
[4] = 9-month toxicokinetic study of once-a-day oral inecalcitol in monkeys (plasma concentrations); format: in vivo; conditions: male mature monkeys, day 1 and day 272
Method: FIG. 1 illustrates the mean plasma concentrations vs time obtained during a 9-month toxicology study on once-a-day oral inecalcitol performed in male mature monkeys.
(§3) On FIG. 1, mean plasma concentrations of inecalcitol are plotted vs. time on the first day of the study and close to its end, at day 272. The mean toxicokinetic profiles are almost superimposable, with a mean peak of about 1.2 ng/ml achieved as soon as 15 minutes after oral intake, and a steady disappearance from circulation within 4 hours.

[5] = 2-week toxicokinetic study of twice-a-day oral inecalcitol in monkeys (plasma concentrations); format: in vivo, cynomolgus monkeys; conditions: first day of treatment
Method: FIG. 2 illustrates the mean plasma concentrations vs time obtained during a 2-week toxicology study on twice-a-day oral inecalcitol performed in male juvenile monkeys.
as §2

[6] = Eelen et al. 2005; Verlinden et al. 2001; cited from earlier work; remark: listed apart in the source
[7] = Pharmacokinetics of oral inecalcitol in HRPC patients (LC/MS/MS of plasma); format: in vivo; conditions: human patients
Method: as §1
Inecalcitol was assayed as unchanged circulating compound in the plasma by liquid chromatography followed by tandem mass spectrometry (LC/MS/MS). […] At 600 μg and 1000 μg, mean peak values reached around 35 and 45 pg/ml (0.035 and 0.045 ng/ml) at 90 and 45 minutes, respectively.

[8] = 9-month toxicology study of once-a-day oral inecalcitol in monkeys (calcemia, toxicity); format: in vivo
Method: as §3

[9] = system: human breast cancer cells; conditions: in vitro and in vivo; Verlinden et al. 2000; cited from earlier work
[10] = male juvenile cynomolgus monkeys, twice daily oral, 2×1.6 mg each day, 2 weeks
[11] = male mature cynomolgus monkeys, daily oral, 9 months, up to highest tested dose 1.8 mg per day per monkey
[12] = 50 pts treated, inecalcitol with docetaxel and prednisone
[13] = HRPC patients, oral 300 μg, 600 μg, 1000 μg (qod,qd), 2 mg (qd) or 4 mg (qd)

CC(=O)O[C@@]12CO[C@@H]1C[C@H](O)[C@@]1(C)C(=O)[C@H](O)C3=C(C)[C@@H](OC(=O)[C@H](O)[C@@H](NC(=O)OC(C)(C)C)c4ccccc4)C[C@@](O)([C@@H](OC(=O)c4ccccc4)[C@H]21)C3(C)C [docetaxel, reference compound]
adverse events related to the drug [1]: All these AEs

C[C@H](CC#CC(C)(C)O)[C@H]1CC[C@@H]2/C(=C/C=C3C[C@@H](O)C[C@H](O)C3)CCC[C@@]21C [inecalcitol, 19-nor-9,10-seco-14βH-cholesta-5(Z),7(E)-dien-23-ino-1α,3β,25-triol-23-yne]
hypercalcemia [2, 10]: no hypercalcemia | toxic effects [2, 10]: no toxic effects | plasma calcium level (mean±s.e.m.) ([2]; Day 7 of treatment, 2×1.6 mg each day): 2.68 ± 0.15 mmol/L | plasma calcium level (mean±s.e.m.) ([2]; Day 13 of treatment, 2×1.6 mg each day): 2.76 ± 0.12 mmol/L | plasma calcium level (mean±s.e.m.) ([2]; Day −6 (before treatment)): 2.61 ± 0.06 mmol/L | plasma calcium level (mean±s.e.m.) ([2]; Day −13 (before treatment)): 2.66 ± 0.088 mmol/L | changes in plasma calcium ([2]; two weeks before vs two weeks during treatment): No significant changes | antiproliferative effects compared with calcitriol [3]: enhanced | mean peak plasma concentration ([4]; 1.8 mg per day): about 1.2 ng/ml | disappearance from circulation [4]: ≤ 4 h | time of mean peak after oral intake [4]: 15 min | return of inecalcitol levels to basal levels ([5]; after each of the two administrations): ≤ 4 h | peak mean plasma concentration, second administration ([5]; male juvenile monkeys, 1.6 mg oral around 7 PM): 2.50 ng/mL | peak mean plasma concentration, first administration ([5]; male juvenile monkeys, 1.6 mg oral around 8 AM): 2.75 ng/mL | calcemic effects compared with calcitriol [6]: markedly lower | peak plasma values ([7]; oral 300 μg, lower limit of quantitation 10 pg/ml): barely detectable above the lower limit of quantitation | time of mean peak value ([7]; oral 600 μg): 90 min | time of mean peak value ([7]; oral 1000 μg): 45 min | time of mean peak value ([7]; oral 2 mg): 90 min | time of mean peak value ([7]; oral 4 mg): 45 min | half-life ([7]; male, plasma, four mean profiles between 600 μg and 4 mg oral, read-out: approximate half-life): 1 to 1.5 h | maximal tolerated dose ([8]; 9-month daily oral, highest tested dose 1.8 mg per day per monkey): has not been reached | difference in plasma calcium levels between control and treated monkeys ([8]; different time points during the 9-month study): did not show any difference | hypercalcemia [8, 11]: no hypercalcemia | toxic effects [8, 11]: no toxic effects | plasma calcium level (mean±s.e.m.) ([8]; treated monkeys n = 6, Day 85): 2.53 ± 0.03 mmol/L | plasma calcium level (mean±s.e.m.) ([8]; treated monkeys n = 6, Day 175): 2.49 ± 0.05 mmol/L | plasma calcium level (mean±s.e.m.) ([8]; treated monkeys n = 6, Day 268): 2.51 ± 0.05 mmol/L | plasma calcium level (mean±s.e.m.) ([8]; treated monkeys n = 6, Day −12 (before treatment)): 2.54 ± 0.11 mmol/L | activity on growth of human breast cancer cells [9]: inhibiting the growth | G1-2 adverse event: asthenia [1, 12]: 22 pts | G1-2 adverse event: constipation [1, 12]: 15 pts | G1-2 adverse event: diarrhea [1, 12]: 13 pts | G3-4 AE: arrhythmia [1, 12]: 2 pts | G3-4 AE: asthenia [1, 12]: 3 pts | G3-4 AE: diarrhea [1, 12]: 1 pt | G3-4 AE: general health deterioration [1, 12]: 3 pts | G3-4 AE: lymphopenia [1, 12]: 12 pts | G3-4 AE: neutropenia [1, 12]: 36 pts | increased calcemia ([1]; HRPC patients, oral 40 μg to 4 mg qod or qd, with docetaxel and prednisone, 50 pts treated): No increased calcemia | hypercalcemia [1, 13]: did not induce any hypercalcemia | toxic effect [1, 13]: did not induce any hypercalcemia or any toxic effect | adverse events related to the drug [1]: none
